# Data reported in PubChem BioAssay AID2060330 (Molecular Pharmacology Branch, DTP, NCI, 2025).
# System: LG0703-F948-PDC spheroids with HUVEC/MSC, viability
# Assay: Anticancer human tumor LG0703-F948-PDC patient-derived lung adenocarcinoma cell line growth inhibition [IpAb]
# Settings: for IC50: curve of first compound; for viability, T/C: stronger effect = lower value
# Method in brief: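 Multi-cell spheroids of 60% tumour cells, 25% HUVEC and 15% MSC in ultra-low-attachment U-bottom wells, treated with agents combined with ipatasertib or abemaciclib. Half-log ranges top out near clinical Cmax, or 10 microM when Cmax is unknown.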
# 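Also: spheroids exposed to compounds for seven days before readout.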
# 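For viability, T/C in this document: T/C percent relative to DMSO vehicle wells set as 100% viability.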
structure (smiles),measurement,setting,value
Cn1ncc(Cl)c1-c1cc(C(=O)NC(CN)Cc2cccc(F)c2)sc1Cl (stereo not given) + CCN1CCN(Cc2ccc(Nc3ncc(F)c(-c4cc(F)c5nc(C)n(C(C)C)c5c4)n3)nc2)CC1,IC50,second compound 0.01 µM,643 nM
same,IC50,second compound 0.0316 µM,401 nM
same,IC50,second compound 0.1 µM,372 nM
same,IC50,second compound 0.316 µM,349 nM
same,IC50,second compound 1 µM,278 nM
same,"viability, T/C","second compound 0.01 µM, first compound 0.0316 µM",88%
same,"viability, T/C","second compound 0.01 µM, first compound 0.1 µM",67.6%
same,"viability, T/C","second compound 0.01 µM, first compound 0.316 µM",59.3%
same,"viability, T/C","second compound 0.01 µM, first compound 1 µM",49.3%
same,"viability, T/C","second compound 0.01 µM, first compound 3.16 µM",21.5%
same,"viability, T/C","second compound 0.01 µM, first compound 10 µM",0.13%
same,"viability, T/C","second compound 0.0316 µM, first compound 0.0316 µM",86.1%
same,"viability, T/C","second compound 0.0316 µM, first compound 0.1 µM",63.7%
same,"viability, T/C","second compound 0.0316 µM, first compound 0.316 µM",51.3%
same,"viability, T/C","second compound 0.0316 µM, first compound 1 µM",45.9%
same,"viability, T/C","second compound 0.0316 µM, first compound 3.16 µM",13.3%
same,"viability, T/C","second compound 0.0316 µM, first compound 10 µM",0.13%
same,"viability, T/C","second compound 0.1 µM, first compound 0.0316 µM",86.3%
same,"viability, T/C","second compound 0.1 µM, first compound 0.1 µM",68.8%
same,"viability, T/C","second compound 0.1 µM, first compound 0.316 µM",44.4%
same,"viability, T/C","second compound 0.1 µM, first compound 1 µM",46.4%
same,"viability, T/C","second compound 0.1 µM, first compound 3.16 µM",13.5%
same,"viability, T/C","second compound 0.1 µM, first compound 10 µM",0.13%
same,"viability, T/C","second compound 0.316 µM, first compound 0.0316 µM",86.1%
same,"viability, T/C","second compound 0.316 µM, first compound 0.1 µM",70%
same,"viability, T/C","second compound 0.316 µM, first compound 0.316 µM",41.9%
same,"viability, T/C","second compound 0.316 µM, first compound 1 µM",48.7%
same,"viability, T/C","second compound 0.316 µM, first compound 3.16 µM",7.04%
same,"viability, T/C","second compound 0.316 µM, first compound 10 µM",0.12%
same,"viability, T/C","second compound 1 µM, first compound 0.0316 µM",77.9%
same,"viability, T/C","second compound 1 µM, first compound 0.1 µM",71.5%
same,"viability, T/C","second compound 1 µM, first compound 0.316 µM",37.4%
same,"viability, T/C","second compound 1 µM, first compound 1 µM",40.1%
same,"viability, T/C","second compound 1 µM, first compound 3.16 µM",1.07%
same,"viability, T/C","second compound 1 µM, first compound 10 µM",0.17%
